The values that follow come from patent US9708557B2, “Process for the treatment of liquefied hydrocarbon gas using 2-amino-2(hydroxymethyl) propane-1,3-diol compounds” (Dow Global Technologies LLC, priority 2012, dated 2017).

The nature of data set [1]: Solubility of tested amine in heptane phase (gas chromatography, toluene internal standard). As to conditions: heptane 10 g, toluene 0.1 g, amine 2.5 g mixed at 20° C. for 1 hour, decanted 15 minutes; average of three injections.
Description: A solution of heptane (10 g), toluene (0.1 g) and the tested amine (2.5 g) are mixed at 20° C. for 1 hour. The mixture is decanted for 15 minutes and the neat heptane phase is analyzed by gas chromatography using toluene as internal standard. The injection is repeated three times and peak areas of tested amine are averaged.
Data set [2] is described as follows: pKa by automated Mettler Toledo titration. The following applies: 50 weight % aqueous amine solution.

Take `NC(CO)(CO)CO` [TA, 2-amino-2-(hydroxymethyl)propane-1,3-diol]: the “area counts (GC peak area of tested amine in neat heptane phase)” value in data set [1] is 0 area counts.
As a reminder, the pKa is the pH at which an ionisable group is half protonated. Regarding `CN(C)C(CO)(CO)CO` [DMTA, 2-dimethylamino-2-(hydroxymethyl)propane-1,3-diol], the “area counts (GC peak area of tested amine in neat heptane phase)” value in data set [1] came to 50 area counts. The molecule also had a pKa in data set [2] of 9.1.
